Each structure is given as a SMILES string. Active and inactive are the calls of the source. The calls are words filed in the database; no cut-off is given here.

Data set [1] deals with T1, Amine oxidase [flavin-containing] A (Homo sapiens, UniProt P21397).
T1 sequence (P21397 whole entry): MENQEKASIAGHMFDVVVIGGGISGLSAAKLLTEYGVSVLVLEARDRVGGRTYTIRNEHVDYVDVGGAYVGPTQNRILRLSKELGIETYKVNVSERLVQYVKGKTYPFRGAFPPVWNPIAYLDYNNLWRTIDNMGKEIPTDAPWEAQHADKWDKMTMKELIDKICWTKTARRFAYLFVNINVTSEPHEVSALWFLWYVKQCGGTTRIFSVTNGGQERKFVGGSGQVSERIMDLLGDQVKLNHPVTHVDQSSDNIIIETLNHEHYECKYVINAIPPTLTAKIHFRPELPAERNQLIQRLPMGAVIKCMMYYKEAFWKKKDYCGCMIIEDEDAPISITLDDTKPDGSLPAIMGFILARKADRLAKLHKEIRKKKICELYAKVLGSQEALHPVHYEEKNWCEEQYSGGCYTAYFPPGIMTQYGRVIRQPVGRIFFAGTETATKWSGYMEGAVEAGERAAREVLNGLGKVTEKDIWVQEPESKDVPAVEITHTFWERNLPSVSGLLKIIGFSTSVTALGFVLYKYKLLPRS
The data set can be described thus: Inhibition of MAO-A (unknown origin) using kynuramine as substrate at 10 uM preincubated for 30 mins followed by substrate addition and measured after 30 mins by fluorescence based analysis relative to control. As to conditions: 0.5 h, time 60 min.

The target in data set [2] is T2, Amine oxidase [flavin-containing] B (Homo sapiens, UniProt P27338).
T2 sequence (P27338 whole entry): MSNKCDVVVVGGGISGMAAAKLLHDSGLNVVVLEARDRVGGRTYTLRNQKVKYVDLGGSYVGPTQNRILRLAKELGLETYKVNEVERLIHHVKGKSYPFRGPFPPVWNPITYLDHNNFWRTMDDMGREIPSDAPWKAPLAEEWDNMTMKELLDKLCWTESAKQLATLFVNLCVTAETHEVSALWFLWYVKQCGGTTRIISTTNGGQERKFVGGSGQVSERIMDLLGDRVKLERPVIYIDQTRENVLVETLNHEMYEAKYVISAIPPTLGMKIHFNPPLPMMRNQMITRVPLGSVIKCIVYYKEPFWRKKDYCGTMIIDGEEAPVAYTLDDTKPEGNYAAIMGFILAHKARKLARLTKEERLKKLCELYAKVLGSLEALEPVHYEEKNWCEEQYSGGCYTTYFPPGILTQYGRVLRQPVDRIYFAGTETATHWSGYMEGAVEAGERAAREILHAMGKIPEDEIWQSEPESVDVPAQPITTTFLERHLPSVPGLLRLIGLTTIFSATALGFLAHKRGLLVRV
Description: Inhibition of MAO-B (unknown origin) using kynuramine as substrate preincubated for 30 mins followed by substrate addition and measured after 30 mins by fluorescence based analysis

For data set [3], the system named is PC-12. Briefly: Neuroprotective activity against H2O2-induced cell damage in rat PC-12 cells assessed as increase in cell viability at 10 uM preincubated for 2 hrs followed by H2O2 addition and measured after 24 hrs by MTT assay (reference value: 50.3%). The data set is classed as functional. As to conditions: time 26 hrs.
The test system of data set [4] is BV-2. The data set can be described thus: Cytotoxicity against mouse BV-2 cells assessed as reduction in cell viability upto 10 uM incubated for 30 mins by MTT assay. As to conditions: bv-2, 0.5 h. The class given is toxicity, cell-based. A general note: Formazan colour is commonly taken as a measure of viable cells.
In data set [5] the test system is BV-2. The data set can be described thus: Anti-neuroinflammatory activity in mouse BV-2 cells assessed as inhibition of LPS-induced TNF-alpha production at 10 uM preincubated for 30 mins followed by LPS stimulation and measured after 24 hrs by ELISA analysis relative to control. The class given is functional. Particulars: time 24.5 hrs.
Data set [6] relates to BV-2. The data set can be described thus: Inhibition of LPS-induced ROS production in mouse BV-2 cells at 10 uM preincubated for 30 mins followed by LPS-stimulation and measured after 30 mins by DCFH-DA based fluorescence microplate reader analysis relative to control. The class given is functional. As to conditions: BV-2, 1 h, time 60 min.
Data set [7] has as its system BV-2. Briefly: Anti-neuroinflammatory activity in mouse BV-2 cells assessed as inhibition of LPS-induced NO production at 10 uM preincubated for 30 mins followed by LPS stimulation and measured after 24 hrs by Griess reagent based assay relative to control. The class given is functional. As to conditions: time 24.5 hrs. On the technique in general: Griess reagent forms a coloured azo dye with nitrite.

In data set [8] the test system is PC-12. Briefly: Cytotoxicity against rat PC-12 cells assessed as reduction in cell viability at 10 uM incubated for 2 hrs by MTT assay. The class given is toxicity, cell-based. Particulars: pc-12, 2 h.
The species named for another data set is Mus musculus. Particulars: C57BL/6C, dose 50.0 mg/kg, route ig, time 3.0 weeks.

The compound `Oc1cc(OCc2ccc(F)c(F)c2)ccc1CNc1ccccc1` had an inhibition at 10 µM in data set [1] of 48%. This compound also registered an IC50 in data set [2] of 0.021 µM.
Regarding `Oc1ccc(/C=C/c2cc(O)cc(O)c2)cc1` [RESVERATROL], the Activity in the data set with PC-12 [3] is reported as 63.6%; with BV-2 [4], “Non-Toxic”; with PC-12 [8], “Non-Toxic”. The inhibition at 10 µM in the data set with BV-2 [5] turned out to be 52.2%; in the data set with BV-2 [6] it was 56.7%; with BV-2 [7], 51.8%.
On to `Oc1cc(OCc2cccc(Cl)c2)ccc1CNc1ccccc1`, for which, in [1], at 10 µM the inhibition was 20.5%. Further, the half-inhibitory concentration (IC50) in [2] turned out to be 0.249 µM.
On the same counts, the results for `Oc1cccc(NCc2ccc(OCc3ccc(F)cc3)cc2O)c1` are 35.5% and 0.067 µM.
Take `Oc1cc(OCc2cccc(F)c2)ccc1CNc1ccccc1`: in [1], testing at 10 µM gave an inhibition of 11.8%. In data set [2], this compound registered an IC50 of 0.095 µM.
With `C[C@H](NCc1ccc(OCc2cccc(F)c2)cc1)C(N)=O` [SAFINAMIDE], in the data set listed under Mus musculus, the inhibition result was “Active”. The compound also gave an inhibition at 10 µM in data set [1] of 25.7%.
Compound `Oc1cc(OCc2ccccc2Cl)ccc1CNc1ccccc1` yielded an inhibition at 10 µM in [1] of 10.3%. In [2], the IC50 was found to be 0.423 µM.
In [1], `Oc1cc(OCc2ccccc2F)ccc1CNc1ccccc1` showed an inhibition at 10 µM of 8.34%. In [2], this compound returned an IC50 of 0.334 µM.
The like results for `Oc1cc(OCc2ccc(F)c(Cl)c2)ccc1CNc1ccccc1` were, in that order, 49.2% and 0.033 µM.
In turn, `Oc1cc(OCc2ccc(Cl)cc2)ccc1CNc1ccccc1` gave an inhibition at 10 µM in data set [1] of 51.2%. In [2], this compound showed an IC50 of 0.058 µM.
On the same counts, the results for `Cc1ccc(COc2ccc(CNc3ccccc3)c(O)c2)cc1` are 26.4% and 0.366 µM.
The compound `Oc1cc(OCc2cccc(C(F)(F)F)c2)ccc1CNc1ccccc1` came in with an inhibition at 10 µM in [1] of 9.25%. In data set [2], this compound yielded a half-maximal inhibitory concentration (IC50) of 0.297 µM.
The like results for `Oc1cc(OCc2ccccc2)ccc1CNc1ccccc1` were, in that order, 14.7% and 0.481 µM.
The like results for `COc1cccc(COc2ccc(CNc3ccccc3)c(O)c2)c1` were, in that order, below 5% and 0.343 µM.
In data set [1], `CC(C)(C)c1ccc(COc2ccc(CNc3ccccc3)c(O)c2)cc1` gave an inhibition at 10 µM below 5%. This compound also returned an IC50 in data set [2] of 0.435 µM.
In the case of `Oc1cc(OCc2ccc(Cl)c(Cl)c2)ccc1CNc1ccccc1`, the inhibition at 10 µM in data set [1] was determined as 52.5%. Also, 0.049 µM corresponded to half-maximal inhibition in [2] (IC50).
On the same counts, the results for `O=[N+]([O-])c1ccc(COc2ccc(CNc3ccccc3)c(O)c2)cc1` are 30.6% and 0.085 µM.
On the same counts, the results for `Oc1cc(OCc2ccc(F)cc2)ccc1CNc1ccccc1F` are 38.3% and 0.035 µM.

As a reminder, the inhibition is how much of the control response was suppressed. As usually defined, the IC50 is the concentration at which inhibition is half-maximal. A lower IC50 goes with greater potency.

The record behind these values is ChEMBL document CHEMBL5331103, “Discovery of novel 2-hydroxyl-4-benzyloxybenzyl aniline derivatives as potential multifunctional agents for the treatment of Parkinson's disease” (Eur J Med Chem, 2023).
